The results in this text go back to US9204653B2, “5-fluoro pyrimidine derivatives” (DOW AGROSCIENCES LLC, priority 2008, dated 2015).

This assay deals with Mycosphaerella graminicola; Anamorph: Septoria tritici; Bayer Code SEPTTR. In words: Leaf blotch of wheat, foliar fungicide treatment, one day protectant (1DP) or three day curative (3DC). It is filed as in vivo, Septoria tritici on wheat plants (variety Yuma). To be noted: Zymoseptoria tritici, percent control rating; for pest or weed control at 100 ppm: read-out: SEPTTR 3DC 100 ppm.

The mark [1] stands for this setting: 24 h, one day protectant (1DP), 25 ppm (first 1DP column), read-out: SETTTR 1DP 25 ppm.
Setting [2] is: 24 h, one day protectant (1DP), 25 ppm as printed (second 1DP column), read-out: SETTTR 1DP 25 ppm.
[3] abbreviates: 72 h, three day curative (3DC), 25 ppm, read-out: SEPTTR 3DC 25 ppm.

Like-named read-outs stand apart in the source and are kept apart here.

With `CC(C)=NOc1ncc(F)c(N)n1` [Compound 997], the pest or weed control at 25 ppm under setting [1] lay in the range of 76 to 100%, the pest or weed control at 25 ppm under setting [2] lay in the range of 76 to 100% and the pest or weed control at 25 ppm under setting [3] is 76 to 100%. For the setting “72 h, three day curative (3DC)”, the pest or weed control at 100 ppm is 76 to 100%.

On to `Nc1nc(ON=C(C2CC2)C2CC2)ncc1F` [Compound 998], for which the pest or weed control at 25 ppm runs as follows: under setting [1], 76 to 100%; under setting [2], 76 to 100%; under setting [3], 76 to 100%. Further, for the setting “72 h, three day curative (3DC)”, the pest or weed control at 100 ppm fell in the range of 76 to 100%.

For `COc1ccc(/C(C)=N/Oc2ncc(F)c(N)n2)cc1` [Compound 999], the pest or weed control at 25 ppm lay in the range of 76 to 100% under setting [1], 76 to 100% under setting [2] and 76 to 100% under setting [3]. Also, for the setting “72 h, three day curative (3DC)”, the pest or weed control at 100 ppm is 76 to 100%.

For the compound `C/C(=N\Oc1ncc(F)c(N)n1)c1ccc(Cl)cc1` [Compound 1000], the pest or weed control at 25 ppm fell in the range of 76 to 100% under setting [1], 76 to 100% under setting [2] and 76 to 100% under setting [3]. Moreover, under “72 h, three day curative (3DC)”, the pest or weed control at 100 ppm fell in the range of 76 to 100%.

With `C/C(=N\Oc1ncc(F)c(N)n1)c1cnc(OCC(F)(F)F)nc1` [Compound 1001], the pest or weed control at 25 ppm under setting [1] is 26 to 50%, the pest or weed control at 25 ppm under setting [2] was in the range of 76 to 100% and the pest or weed control at 25 ppm under setting [3] lay in the range of 26 to 50%. Under “72 h, three day curative (3DC)”, the pest or weed control at 100 ppm was in the range of 76 to 100%.

Regarding `C/C(=N\Oc1ncc(F)c(N)n1)c1ccc(S(=O)(=O)N(C)C)cc1` [Compound 1002], the pest or weed control at 25 ppm reads like this: under setting [1], 51 to 75%; under setting [2], 76 to 100%; under setting [3], 26 to 50%. Also, where the note is “72 h, three day curative (3DC)”, the pest or weed control at 100 ppm was in the range of 51 to 75%.

Turning to `CC(C)S(=O)(=O)Nc1nc(OCc2ccc(F)cc2)ncc1F` [Compound 1004], the pest or weed control at 25 ppm runs as follows: under setting [1], 0 to 25%; under setting [2], 0 to 25%; under setting [3], 0 to 25%. For the same compound, the pest or weed control at 100 ppm (72 h, three day curative (3DC)) lay within 26 to 50%.

`O=S(=O)(Nc1nc(OCc2ccc(F)cc2)ncc1F)c1ccccc1` [Compound 1005]: the pest or weed control at 25 ppm reads like this: under setting [1], 0 to 25%; under setting [2], 0 to 25%; under setting [3], 0 to 25%. Further, the pest or weed control at 100 ppm (72 h, three day curative (3DC)) lay in the range of 0 to 25%.

Consider `CCS(=O)(=O)Nc1nc(OCc2ccc(C)cc2)ncc1F` [Compound 1006], for which the pest or weed control at 25 ppm reads like this: under setting [1], 0 to 25%; under setting [2], 0 to 25%; under setting [3], 0 to 25%. The pest or weed control at 100 ppm (72 h, three day curative (3DC)) was 0 to 25%.

As for `Cc1ccc(COc2ncc(F)c(NS(=O)(=O)C3CC3)n2)cc1` [Compound 1007], the pest or weed control at 25 ppm under setting [1] is 0 to 25%, the pest or weed control at 25 ppm under setting [2] was 0 to 25% and the pest or weed control at 25 ppm under setting [3] fell in the range of 0 to 25%. The pest or weed control at 100 ppm (72 h, three day curative (3DC)) lay within 0 to 25%.

Take `CS(=O)(=O)Nc1nc(OCc2ccccc2)ncc1F` [Compound 1008]: the pest or weed control at 25 ppm was 0 to 25% under setting [1], 0 to 25% under setting [2] and 0 to 25% under setting [3]. Also, the pest or weed control at 100 ppm (72 h, three day curative (3DC)) lay in the range of 0 to 25%.

Regarding `CC(C)S(=O)(=O)Nc1nc(OCc2ccccc2)ncc1F` [Compound 1009], the pest or weed control at 25 ppm under setting [1] was 0 to 25%, the pest or weed control at 25 ppm under setting [2] fell in the range of 0 to 25% and the pest or weed control at 25 ppm under setting [3] lay in the range of 0 to 25%. Further, under “72 h, three day curative (3DC)”, the pest or weed control at 100 ppm is 0 to 25%.

As for `O=S(=O)(Nc1nc(OCc2ccccc2)ncc1F)c1ccccc1` [Compound 1010], the pest or weed control at 25 ppm under setting [1] lay in the range of 0 to 25%, the pest or weed control at 25 ppm under setting [2] was 0 to 25% and the pest or weed control at 25 ppm under setting [3] was in the range of 0 to 25%. Besides, where the note is “72 h, three day curative (3DC)”, the pest or weed control at 100 ppm was in the range of 0 to 25%.

On to `COc1cccc(COc2ncc(F)c(NS(C)(=O)=O)n2)c1` [Compound 1011], for which the pest or weed control at 25 ppm by setting is: under setting [1], 0 to 25%; under setting [2], 0 to 25%; under setting [3], 0 to 25%. Moreover, the pest or weed control at 100 ppm (72 h, three day curative (3DC)) was 0 to 25%.

Turning to `COc1cccc(COc2ncc(F)c(NS(=O)(=O)C(C)C)n2)c1` [Compound 1012], the pest or weed control at 25 ppm is 0 to 25% under setting [1], 0 to 25% under setting [2] and 0 to 25% under setting [3]. In addition, the pest or weed control at 100 ppm (72 h, three day curative (3DC)) is 0 to 25%.

For the compound `COc1cccc(COc2ncc(F)c(NS(=O)(=O)c3ccccc3)n2)c1` [Compound 1013], the pest or weed control at 25 ppm is, setting by setting: under setting [1], 0 to 25%; under setting [2], 0 to 25%; under setting [3], 0 to 25%. In addition, the pest or weed control at 100 ppm (72 h, three day curative (3DC)) lay in the range of 0 to 25%.

With `Fc1ccc(COc2ncc(F)c(/N=N/c3ccccc3Cl)n2)cc1` [Compound 1014], the pest or weed control at 25 ppm lay in the range of 0 to 25% under setting [1], 0 to 25% under setting [2] and 0 to 25% under setting [3]. The pest or weed control at 100 ppm (72 h, three day curative (3DC)) was 76 to 100%.

With `COc1nn(C)c(C(F)(F)F)c1S(=O)(=O)Nc1nc(OCc2ccc(C)cc2)ncc1F` [Compound 1015], the pest or weed control at 25 ppm was in the range of 0 to 25% under setting [1], 0 to 25% under setting [2] and 26 to 50% under setting [3]. Also, the pest or weed control at 100 ppm (72 h, three day curative (3DC)) was 76 to 100%.

For `COc1ccnc(Cl)c1S(=O)(=O)Nc1nc(OCc2ccc(C)cc2)ncc1F` [Compound 1016], the pest or weed control at 25 ppm under setting [1] was in the range of 0 to 25%, the pest or weed control at 25 ppm under setting [2] was in the range of 0 to 25% and the pest or weed control at 25 ppm under setting [3] was in the range of 51 to 75%. Moreover, for the setting “72 h, three day curative (3DC)”, the pest or weed control at 100 ppm was in the range of 51 to 75%.

As to `COc1ccc(/C(C)=N/Nc2nc(OC)ncc2F)cc1` [Compound 1017], the pest or weed control at 25 ppm reads like this: under setting [1], 0 to 25%; under setting [2], 26 to 50%; under setting [3], 0 to 25%. For the same compound, under “72 h, three day curative (3DC)”, the pest or weed control at 100 ppm was 51 to 75%.

For the compound `CCC(C)/C(C)=N/Nc1nc(OC)ncc1F` (stereo not drawn) [Compound 1018], the pest or weed control at 25 ppm lay in the range of 0 to 25% under setting [1], 0 to 25% under setting [2] and 0 to 25% under setting [3]. The pest or weed control at 100 ppm (72 h, three day curative (3DC)) fell in the range of 0 to 25%.

As to `COc1ncc(F)c(N/N=C(\C)c2cc3ccccc3o2)n1` [Compound 1019], the pest or weed control at 25 ppm is, setting by setting: under setting [1], 26 to 50%; under setting [2], 26 to 50%; under setting [3], 0 to 25%. Besides, for the setting “72 h, three day curative (3DC)”, the pest or weed control at 100 ppm was 0 to 25%.

Regarding `COc1ncc(F)c(N/N=C/c2cc(C)nn2C)n1` [Compound 1020], the pest or weed control at 25 ppm is, setting by setting: under setting [1], 0 to 25%; under setting [2], 0 to 25%; under setting [3], 26 to 50%. The pest or weed control at 100 ppm (72 h, three day curative (3DC)) lay in the range of 0 to 25%.

As for `CCC(/C=N/Nc1nc(OC)ncc1F)CC` [Compound 1021], the pest or weed control at 25 ppm under setting [1] was 0 to 25%, the pest or weed control at 25 ppm under setting [2] fell in the range of 26 to 50% and the pest or weed control at 25 ppm under setting [3] lay within 26 to 50%. In addition, the pest or weed control at 100 ppm (72 h, three day curative (3DC)) is 26 to 50%.

For the compound `COc1ncc(F)c(N/N=C/C2CC2)n1` [Compound 1022], the pest or weed control at 25 ppm reads like this: under setting [1], 0 to 25%; under setting [2], 0 to 25%; under setting [3], 0 to 25%. Besides, under “72 h, three day curative (3DC)”, the pest or weed control at 100 ppm lay in the range of 26 to 50%.

For `COc1ncc(F)c(N/N=C/c2ccco2)n1` [Compound 1023], the pest or weed control at 25 ppm is, setting by setting: under setting [1], 0 to 25%; under setting [2], 0 to 25%; under setting [3], 0 to 25%. Further, the pest or weed control at 100 ppm (72 h, three day curative (3DC)) was 0 to 25%.

Consider `COc1ncc(F)c(N/N=C/c2cccs2)n1` [Compound 1024], for which the pest or weed control at 25 ppm is, setting by setting: under setting [1], 0 to 25%; under setting [2], 0 to 25%; under setting [3], 0 to 25%. Further, the pest or weed control at 100 ppm (72 h, three day curative (3DC)) lay in the range of 0 to 25%.
